Experiment [1] deals with PS2.M (DNA, G4) GTGGGTAGGGCGGGTTGG
The experiment is described as follows: luminescence enhancement. Particulars: 100 mM K+ (annealing); 1 μM complex, 5 μM DNA; 20 mM Tris-HCl pH 7.0.

For experiment [2], the system named is F21T (DNA, G4) GGGTTAGGGTTAGGGTTAGGG
Kind of experiment: FRET melting. As to conditions: 100 mM K+; potassium cacodylate pH 7.0; 200 nM DNA; complex concentration not in material.

For experiment [3], the system named is F10T (DNA, hairpin, hexaethylene glycol (HEG) linker between nucleotides 8 and 9) TATAGCTATATAGCTATAT
Kind of experiment: FRET melting. As to conditions: 10 mM Li+; lithium cacodylate pH 7.4; same complex concentration as F21T.

For experiment [4], the system named is ON1 (DNA, G4) GTGGGTAGGGCGGGTTGGTGGCGACGGCAGCGAGGCAGAGGAGCAGAGGGAGCA
The experiment is described as follows: luminescence enhancement. Particulars: 20 mM K+, 150 mM NH4+; 20 mM Tris pH 7.2; 1 μM complex; G-quadruplex released by helicase unwinding of ON1-ON2.

In experiment [5] the test system is ON1-ON2 duplex substrate (DNA, duplex) GTGGGTAGGGCGGGTTGGTGGCGACGGCAGCGAGGCAGAGGAGCAGAGGGAGCA/GCCTCGCTGCCGTCGCCACCAACCCGCCC
The experiment is described as follows: luminescence enhancement. Particulars: 20 mM K+, 150 mM NH4+; 20 mM Tris pH 7.2; 1 μM complex; duplex without helicase unwinding.

In experiment [6] the test system is ds17 (DNA, duplex) CCAGTTCGTAGTAACCC/GGGTTACTACGAACTGG
The experiment is described as follows: G4-FID thiazole orange displacement. Particulars: Tris-HCl buffer; thiazole orange 0.5 μM displaced; less effective than for Pu27.

The source of these data is paper PMC5539802 (2014).

Consider `Clc1cc2cccnc2c2ncccc12.[Ir+3].[c-]1ccccc1-c1ccc2ccccc2n1.[c-]1ccccc1-c1ccc2ccccc2n1`, for which the binding result in experiment [1] is listed as “yes”.
For the molecule `[Ir+3].[c-]1ccccc1-c1ccc2ccccc2n1.[c-]1ccccc1-c1ccc2ccccc2n1.c1cnc2c(c1)ccc1cccnc12`, the ΔTm (as a rule, the shift of the melting midpoint relative to a reference) in experiment [2] was ~ 13 °C; in experiment [3], 4 °C. Also, the binding entry is reported as “yes” in experiment [1], “yes” in experiment [4], “weak” in experiment [5] and “weak” in experiment [6].
